Test results as given in patent US20220298107A1, “SUBSTITUTED UREA DIHYDROOROTATE DEHYDROGENASE INHIBITORS” (Janssen Biotech, Inc., priority 2019, published 2022).

Legend:
MOLM-13 cells = assay: MOLM-13 Cellular Assay; type: cell-based; settings: Homo sapiens, MOLM-13, 72 h, read-out: MOLM-13 Cellular Assay EC50 (nM)
Description: MOLM-13 cells were obtained from DSMZ and were maintained in RPMI 1640+Glutamax+25 mM HEPES (Invitrogen, catalog number 72400) supplemented with 10% heat inactivated fetal bovine serum (FBS; Invitrogen, catalog number 16140). The day prior to assay set-up, cells were pelleted, resuspended in fresh media, counted, and cells were plated at 0.4×10^6 cell/mL in a T150 flask. On the day of the assay, cells were pelleted, resuspend in fresh media, counted and seeded at 5,000 cells/well in white opaque 96-well tissue culture treated microplates (Perkin Elmer, catalog number 6005680). Cells were exposed to different concentrations of test compounds at 37° C., 5% CO2 for 72 hours immediately after seeding. Cell viability was acquired on a Perkin Elmer Envision 2104 multilabel reader using the CellTiter-Glo assay (Promega) according to the manufacturer's instructions.

human DHODH = human DHODH (Homo sapiens, UniProt Q02127); assay: biochemical
Description: To detect DHODH enzyme activities, dichloroindophenol (DCIP) is added as the final electron acceptor in the assay. DCIP can accept electrons from the reduced coenzyme Q generated in the assay, or from dihydroorotate (DHO) via flavin mononucleotide (FMN) by binding presumably to the ubiquinone pocket. […] The assay buffer contained […], pH 7.5, 150 mM NaCl, 0.5 mM EDTA, and 0.1% Triton X-100 in MilliQ water. Substrate consisting of 20 mM DHO, 5 mM CoQ6, and 1 mM DCIP in assay buffer, initiates the reaction. […] Absorbance measurements were obtained using the BMG Phera Star plate-reading spectrophotomer. Purified human DHODH was purchased from Proteros (cat. No. PR-0044). Chemicals were purchased from Sigma-Aldrich, Teknova, and Avanti Polar Lipids. Liquid handling was performed using Labcyte Echo and Formulatrix Tempest.

human DHODH, sequence (Q02127 whole entry): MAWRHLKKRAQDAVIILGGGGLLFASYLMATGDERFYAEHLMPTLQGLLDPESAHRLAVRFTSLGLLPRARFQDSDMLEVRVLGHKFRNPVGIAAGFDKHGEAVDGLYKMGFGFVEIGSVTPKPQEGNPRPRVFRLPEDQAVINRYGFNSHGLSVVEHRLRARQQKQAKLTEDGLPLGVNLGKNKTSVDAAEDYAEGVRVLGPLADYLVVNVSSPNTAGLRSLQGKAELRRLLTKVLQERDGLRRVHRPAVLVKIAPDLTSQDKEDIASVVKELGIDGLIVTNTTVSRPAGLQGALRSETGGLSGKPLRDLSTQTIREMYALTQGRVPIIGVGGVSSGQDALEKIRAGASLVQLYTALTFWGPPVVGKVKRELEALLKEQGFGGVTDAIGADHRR

EC50 (MOLM-13 cells) [nM]	EC50 (human DHODH) [nM]	SMILES
12	20	C[C@H](Oc1cc(NC(=O)N2CCCCC2)c(F)cc1C(=O)Nc1c(F)cccc1Cl)C(F)(F)F [Example 2, (S)-N-(4-((2-Chloro-6-fluorophenyl)carbamoyl)-2-fluoro-5-((1,1,1-trifluoropropan-2-yl)oxy)phenyl)piperidine-1-carboxamide]
1.2	–	CCN(CCO)C(=O)Nc1cc(O[C@@H](C)C(F)(F)F)c(C(=O)Nc2c(F)cccc2Cl)cc1F [Example 3, (S)-N-(2-Chloro-6-fluorophenyl)-4-(3-ethyl-3-(2-hydroxyethyl)ureido)-5-fluoro-2-((1,1,1-trifluoropropan-2-yl)oxy)benzamide]
2.1	7.3	CCN(C(=O)Nc1cc(O[C@@H](C)C(F)(F)F)c(C(=O)Nc2c(F)cccc2Cl)cc1F)C(C)C [Example 4, (S)-N-(2-Chloro-6-fluorophenyl)-4-(3-ethyl-3-isopropylureido)-5-fluoro-2-((1,1,1-trifluoropropan-2-yl)oxy)benzamide]
1.2	3.6	CCN(CCOC)C(=O)Nc1cc(O[C@@H](C)C(F)(F)F)c(C(=O)Nc2c(F)cccc2Cl)cc1F [Example 6, (S)-N-(2-Chloro-6-fluorophenyl)-4-(3-ethyl-3-(2-methoxyethyl)ureido)-5-fluoro-2-((1,1,1-trifluoropropan-2-yl)oxy)benzamide]
1.9	–	CCN(CC(F)F)C(=O)Nc1cc(O[C@@H](C)C(F)(F)F)c(C(=O)Nc2c(F)cccc2Cl)cc1F [Example 7, (S)-N-(2-chloro-6-fluorophenyl)-4-(3-(2,2-difluoroethyl)-3-ethylureido)-5-fluoro-2-((1,1,1-trifluoropropan-2-yl)oxy)benzamide]
89	490	CC(C)NC(=O)Nc1cc(O[C@@H](C)C(F)(F)F)c(C(=O)Nc2c(F)cccc2Cl)cc1F [Example 9, (S)-N-(2-Chloro-6-fluorophenyl)-5-fluoro-4-(3-isopropylureido)-2-((1,1,1-trifluoropropan-2-yl)oxy)benzamide]
220	950	C[C@H](Oc1cc(NC(=O)N2CCC(CO)C2)c(F)cc1C(=O)Nc1c(F)cccc1Cl)C(F)(F)F (stereo partly drawn) [Example 13, N-(4-((2-Chloro-6-fluorophenyl)carbamoyl)-2-fluoro-5-(((S)-1,1,1-trifluoropropan-2-yl)oxy)phenyl)-3-(hydroxymethyl)pyrrolidine-1-carboxamide]
–	7.9	CCCN(C)C(=O)Nc1cc(O[C@@H](C)C(F)(F)F)c(C(=O)Nc2c(F)cccc2Cl)cc1F [Example 14, (S)-N-(2-Chloro-6-fluorophenyl)-5-fluoro-4-(3-methyl-3-propylureido)-2-((1,1,1-trifluoropropan-2-yl)oxy)benzamide]
–	20	CCCN(CC)C(=O)Nc1cc(O[C@@H](C)C(F)(F)F)c(C(=O)Nc2c(F)cccc2Cl)cc1F [Example 15, (S)-N-(2-Chloro-6-fluorophenyl)-4-(3-ethyl-3-propylureido)-5-fluoro-2-((1,1,1-trifluoropropan-2-yl)oxy)benzamide]
–	4.7	C[C@H](Oc1cc(NC(=O)N(C)CCF)c(F)cc1C(=O)Nc1c(F)cccc1Cl)C(F)(F)F [Example 16, (S)-N-(2-chloro-6-fluorophenyl)-5-fluoro-4-(3-(2-fluoroethyl)-3-methylureido)-2-((1,1,1-trifluoropropan-2-yl)oxy)benzamide]
–	200	C[C@H](Oc1cc(NC(=O)N(C)CCC#N)c(F)cc1C(=O)Nc1c(F)cccc1Cl)C(F)(F)F [Example 17, (S)-N-(2-Chloro-6-fluorophenyl)-4-(3-(2-cyanoethyl)-3-methylureido)-5-fluoro-2-((1,1,1-trifluoropropan-2-yl)oxy)benzamide]
1.5	2.6	C[C@H](Oc1cc(NC(=O)N(C)CCO)c(F)cc1C(=O)Nc1c(F)cccc1Cl)C(F)(F)F [Example 18, (S)-N-(2-Chloro-6-fluorophenyl)-5-fluoro-4-(3-(2-hydroxyethyl)-3-methylureido)-2-((1,1,1-trifluoropropan-2-yl)oxy)benzamide]
–	2.8	C[C@H](Oc1cc(NC(=O)N2CCC2)c(F)cc1C(=O)Nc1c(F)cccc1Cl)C(F)(F)F [Example 20, (S)-N-(4-((2-Chloro-6-fluorophenyl)carbamoyl)-2-fluoro-5-((1,1,1-trifluoropropan-2-yl)oxy)phenyl)azetidine-1-carboxamide]
–	7.2	C[C@H](Oc1cc(NC(=O)N2CC(F)C2)c(F)cc1C(=O)Nc1c(F)cccc1Cl)C(F)(F)F [Example 22, (S)-N-(4-((2-Chloro-6-fluorophenyl)carbamoyl)-2-fluoro-5-((1,1,1-trifluoropropan-2-yl)oxy)phenyl)-3-fluoroazetidine-1-carboxamide]
270	540	C[C@H](Oc1cc(NC(=O)N2CC(O)C2)c(F)cc1C(=O)Nc1c(F)cccc1Cl)C(F)(F)F [Example 23, (S)-N-(4-((2-Chloro-6-fluorophenyl)carbamoyl)-2-fluoro-5-((1,1,1-trifluoropropan-2-yl)oxy)phenyl)-3-hydroxyazetidine-1-carboxamide]
110	210	C[C@H](Oc1cc(NC(=O)N2CC(CF)C2)c(F)cc1C(=O)Nc1c(F)cccc1Cl)C(F)(F)F [Example 25, (S)-N-(4-((2-Chloro-6-fluorophenyl)carbamoyl)-2-fluoro-5-((1,1,1-trifluoropropan-2-yl)oxy)phenyl)-3-(fluoromethyl)azetidine-1-carboxamide]
170	7970	C[C@H](Oc1cc(NC(=O)N(C)CC#N)c(F)cc1C(=O)Nc1c(F)cccc1Cl)C(F)(F)F [Example 26, (S)-N-(2-Chloro-6-fluorophenyl)-4-(3-(cyanomethyl)-3-methylureido)-5-fluoro-2-((1,1,1-trifluoropropan-2-yl)oxy)benzamide]
40	85	COC1CCN(C(=O)Nc2cc(O[C@@H](C)C(F)(F)F)c(C(=O)Nc3c(F)cccc3Cl)cc2F)C1 (stereo partly drawn) [Example 29, N-(4-((2-Chloro-6-fluorophenyl)carbamoyl)-2-fluoro-5-(((S)-1,1,1-trifluoropropan-2-yl)oxy)phenyl)-3-methoxypyrrolidine-1-carboxamide]
57	120	C[C@H](Oc1cc(NC(=O)N2CCC(O)C2)c(F)cc1C(=O)Nc1c(F)cccc1Cl)C(F)(F)F (stereo partly drawn) [Example 30, N-(4-((2-Chloro-6-fluorophenyl)carbamoyl)-2-fluoro-5-(((S)-1,1,1-trifluoropropan-2-yl)oxy)phenyl)-3-hydroxypyrrolidine-1-carboxamide]
5.8	13	C[C@H](Oc1cc(NC(=O)N2CCC(F)C2)c(F)cc1C(=O)Nc1c(F)cccc1Cl)C(F)(F)F (stereo partly drawn) [Example 32, N-(4-((2-Chloro-6-fluorophenyl)carbamoyl)-2-fluoro-5-(((S)-1,1,1-trifluoropropan-2-yl)oxy)phenyl)-3-fluoropyrrolidine-1-carboxamide]
6.6	2.6	Cc1ccnc(Cl)c1NC(=O)c1cc(F)c(NC(=O)N2CCC[C@@H]2CO)cc1O[C@@H](C)C(F)(F)F [Example 36, (R)-N-(4-((2-Chloro-4-methylpyridin-3-yl)carbamoyl)-2-fluoro-5-(((S)-1,1,1-trifluoropropan-2-yl)oxy)phenyl)-2-(hydroxymethyl)pyrrolidine-1-carboxamide]
